From patent publication US8877748B2, “Heterocyclic fused anthraquinone derivatives, manufacturing method and pharmaceutical composition using thereof” (National Defense Medical Center, priority 2012, dated 2014)

How the values were obtained:
[1] = system: NCI-H226; experiment: NCI one-dose screening, non-small cell lung cancer NCI-H226; format: cell-based, human; details: 10 μM
[2] = system: MALME-3M; experiment: NCI one-dose screening, melanoma MALME-3M; format: cell-based, human; details: 10 μM
[3] = system: NCI-H23; experiment: NCI one-dose screening, non-small cell lung cancer NCI-H23; format: cell-based, human; details: 10 μM
[4] = system: MDA-MB-231/ATCC; experiment: NCI one-dose screening, breast cancer MDA-MB-231/ATCC; format: cell-based, human; details: 10 μM
[5] = system: SNB-75; experiment: NCI one-dose screening, CNS cancer SNB-75; format: cell-based, human; details: 10 μM
[6] = system: OVCAR-5; experiment: NCI one-dose screening, ovarian cancer OVCAR-5; format: cell-based, human; details: 10 μM
[7] = system: EKVX; experiment: NCI one-dose screening, non-small cell lung cancer EKVX; format: cell-based, human; details: 10 μM
[8] = system: HCT-116; experiment: NCI one-dose screening, colon cancer HCT-116; format: cell-based, human; details: 10 μM
[9] = system: BT-549; experiment: NCI one-dose screening, breast cancer BT-549; format: cell-based, human; details: 10 μM
[10] = system: UACC-257; experiment: NCI one-dose screening, melanoma UACC-257; format: cell-based, human; details: 10 μM
[11] = system: SK-MEL-2; experiment: NCI one-dose screening, melanoma SK-MEL-2; format: cell-based, human; details: 10 μM
[12] = system: KM12; experiment: NCI one-dose screening, colon cancer KM12; format: cell-based, human; details: 10 μM
[13] = system: ACHN; experiment: NCI one-dose screening, renal cancer ACHN; format: cell-based, human; details: 10 μM
[14] = system: DU145; experiment: NCI one-dose screening, prostate cancer DU145; format: cell-based, human; details: 10 μM
[15] = system: PRMI-8226 cell line; experiment: NCI one-dose screening, leukemia PRMI-8226; format: cell-based, human; details: 10 μM
[16] = system: T-47D; experiment: NCI one-dose screening, breast cancer T-47D; format: cell-based, human; details: 10 μM
[17] = system: IGROV1; experiment: NCI one-dose screening, ovarian cancer IGROV1; format: cell-based, human; details: 10 μM
[18] = system: HCC-2998; experiment: NCI one-dose screening, colon cancer HCC-2998; format: cell-based, human; details: 10 μM
[19] = system: NCI-H460; experiment: NCI one-dose screening, non-small cell lung cancer NCI-H460; format: cell-based, human; details: 10 μM
[20] = system: SK-MEL-5; experiment: NCI one-dose screening, melanoma SK-MEL-5; format: cell-based, human; details: 10 μM
[21] = system: NCI-H522; experiment: NCI one-dose screening, non-small cell lung cancer NCI-H522; format: cell-based, human; details: 10 μM
[22] = system: MDA-MB-468; experiment: NCI one-dose screening, breast cancer MDA-MB-468; format: cell-based, human; details: 10 μM
[23] = system: UO-31; experiment: NCI one-dose screening, renal cancer UO-31; format: cell-based, human; details: 10 μM
[24] = system: CAKI-1; experiment: NCI one-dose screening, renal cancer CAKI-1; format: cell-based, human; details: 10 μM
[25] = system: K562cell line; experiment: NCI one-dose screening, leukemia K562; format: cell-based, human; details: 10 μM
[26] = system: PC-3; experiment: NCI one-dose screening, prostate cancer PC-3; format: cell-based, human; details: 10 μM
[27] = system: MDA, -MB-435; experiment: NCI one-dose screening, breast cancer MDA, -MB-435; format: cell-based, human; details: 10 μM; listed under Melanoma
[28] = system: OVCAR-8; experiment: NCI one-dose screening, ovarian cancer OVCAR-8; format: cell-based, human; details: 10 μM
[29] = system: HL-60, TB; experiment: NCI one-dose screening, leukemia HL-60, TB; format: cell-based, human; details: 10 μM
[30] = system: human tumor cell lines; experiment: NCI one-dose screening, Mean / Delta / Range of growth percent over all tested cell lines; format: cell-based; details: 10 μM
[31] = system: M14; experiment: NCI one-dose screening, melanoma M14; format: cell-based, human; details: 10 μM
[32] = system: COLO 205; experiment: NCI one-dose screening, colon cancer COLO 205; format: cell-based, human; details: 10 μM
[33] = system: UACC-62; experiment: NCI one-dose screening, melanoma UACC-62; format: cell-based, human; details: 10 μM
[34] = system: HOP-92; experiment: NCI one-dose screening, non-small cell lung cancer HOP-92; format: cell-based, human; details: 10 μM
[35] = system: SF-539; experiment: NCI one-dose screening, CNS cancer SF-539; format: cell-based, human; details: 10 μM
[36] = system: A549/ATCC; experiment: NCI one-dose screening, non-small cell lung cancer A549/ATCC; format: cell-based, human; details: 10 μM
[37] = system: MOLT-4; experiment: NCI one-dose screening, leukemia MOLT-4; format: cell-based, human; details: 10 μM
[38] = system: HT29; experiment: NCI one-dose screening, colon cancer HT29; format: cell-based, human; details: 10 μM
[39] = system: SK-OV-3; experiment: NCI one-dose screening, ovarian cancer SK-OV-3; format: cell-based, human; details: 10 μM
[40] = system: MCF7; experiment: NCI one-dose screening, breast cancer MCF7; format: cell-based, human; details: 10 μM
[41] = system: LOX IMVI; experiment: NCI one-dose screening, melanoma LOX IMVI; format: cell-based, human; details: 10 μM
[42] = system: HCT-15; experiment: NCI one-dose screening, colon cancer HCT-15; format: cell-based, human; details: 10 μM
[43] = system: 786-O; experiment: NCI one-dose screening, renal cancer 786-O; format: cell-based, human; details: 10 μM
[44] = system: RXF, 393; experiment: NCI one-dose screening, renal cancer RXF, 393; format: cell-based, human; details: 10 μM
[45] = system: SK-MEL-28; experiment: NCI one-dose screening, melanoma SK-MEL-28; format: cell-based, human; details: 10 μM
[46] = system: TK-10; experiment: NCI one-dose screening, renal cancer TK-10; format: cell-based, human; details: 10 μM
[47] = system: SNB-19; experiment: NCI one-dose screening, CNS cancer SNB-19; format: cell-based, human; details: 10 μM
[48] = system: SN12C; experiment: NCI one-dose screening, renal cancer SN12C; format: cell-based, human; details: 10 μM
[49] = system: HS 578-T; experiment: NCI one-dose screening, breast cancer HS 578-T; format: cell-based, human; details: 10 μM; Breast cancer
[50] = system: PC-3 prostate cancer cell line; experiment: SRB assay cell viability, PC-3 prostate cancer cell line; format: cell-based, human; details: Homo sapiens, PC-3 prostate cancer cell line, Table II prints no unit, μM printed, read-out: SRB assay: 50% inhibition of cancer cell proliferation of sample concentration (IC50) of PC-3 prostate cancer cell line
[51] = system: NCl/ADR-RES; experiment: NCI one-dose screening, breast cancer NCl/ADR-RES; format: cell-based, human; details: 10 μM; listed under Ovarian cancer
[52] = system: HOP-62; experiment: NCI one-dose screening, non-small cell lung cancer HOP-62; format: cell-based, human; details: 10 μM
[53] = system: OVCAR-3; experiment: NCI one-dose screening, ovarian cancer OVCAR-3; format: cell-based, human; details: 10 μM
[54] = system: U251; experiment: NCI one-dose screening, CNS cancer U251; format: cell-based, human; details: 10 μM
[55] = NCI one-dose screening, renal cancer A489; format: cell-based, human; details: 10 μM
[56] = system: SF-268; experiment: NCI one-dose screening, CNS cancer SF-268; format: cell-based, human; details: 10 μM
[57] = system: SR; experiment: NCI one-dose screening, leukemia SR; format: cell-based, human; details: 10 μM

SMILES: COc1ccc(Sc2cc3c(c4nsnc24)C(=O)c2ccccc2C3=O)cc1 [C41, 4-(4-methoxy-phenyl-thio)anthra[2,1-c] [1,2,5]thiadiazol-6,11-dione]
- Growth Percent NCI-H226 [1]: 79.51%
- Growth Percent MALME-3M [2]: 89.52%
- Growth Percent NCI-H23 [3]: 89.13%
- Growth Percent MDA-MB-231/ATCC [4]: 87.58%
- Growth Percent SNB-75 [5]: 79.05%
- Growth Percent OVCAR-5 [6]: 103.00%
- Growth Percent EKVX [7]: 148.76%
- Growth Percent HCT-116 [8]: 94.64%
- Growth Percent BT-549 [9]: 92.92%
- Growth Percent UACC-257 [10]: 118.11%
- Growth Percent SK-MEL-2 [11]: 99.24%
- Growth Percent KM12 [12]: 101.28%
- Growth Percent ACHN [13]: 102.26%
- Growth Percent DU145 [14]: 112.48%
- Growth Percent RPMI-8226 [15]: 101.16%
- Growth Percent T-47D [16]: 89.66%
- Growth Percent IGROV1 [17]: 103.17%
- Growth Percent HCC-2998 [18]: 106.85%
- Growth Percent NCI-H460 [19]: 107.16%
- Growth Percent SK-MEL-5 [20]: 106.14%
- Growth Percent NCI-H522 [21]: 95.69%
- Growth Percent MDA-MB-468 [22]: 112.95%
- Growth Percent UO-31 [23]: 68.31%
- Growth Percent CAKI-1 [24]: 108.29%
- Growth Percent K562 [25]: 91.98%
- Growth Percent PC-3 [26]: 82.81%
- Growth Percent MDA-MB-435 [27]: 118.61%
- Growth Percent OVCAR-8 [28]: 99.50%
- Growth Percent HL-60(TB) [29]: 102.73%
- Growth Percent Delta ([30]; delta over all cell lines): 32.46%
- Growth Percent Mean ([30]; mean over all cell lines): 1000.77%
- Growth Percent Range ([30]; range over all cell lines): 80.45%
- Growth Percent M14 [31]: 92.89%
- Growth Percent COLO 205 [32]: 112.25%
- Growth Percent UACC-62 [33]: 108.99%
- Growth Percent HOP-92 [34]: 91.38%
- Growth Percent SF-539 [35]: 93.53%
- Growth Percent A549/ATCC [36]: 103.32%
- Growth Percent MOLT-4 [37]: 82.89%
- Growth Percent HT29 [38]: 101.30%
- Growth Percent SK-OV-3 [39]: 106.18%
- Growth Percent MCF7 [40]: 93.78%
- Growth Percent LOX IMVI [41]: 90.24%
- Growth Percent HCT-15 [42]: 109.35%
- Growth Percent 786-0 [43]: 94.93%
- Growth Percent RXF 393 [44]: 109.28%
- Growth Percent SK-MEL-28 [45]: 115.63%
- Growth Percent TK-10 [46]: 135.79%
- Growth Percent SNB-19 [47]: 113.97%
- Growth Percent SN12C [48]: 106.54%
- Growth Percent HS 578T [49]: 96.71%
- IC50 [50]: > 15 µM
- Growth Percent NCI/ADR-RES [51]: 97.60%
- Growth Percent HOP-62 [52]: 95.20%
- Growth Percent OVCAR-3 [53]: 109.57%
- Growth Percent U251 [54]: 102.73%
- Growth Percent A498 [55]: 84.77%
- Growth Percent SF-268 [56]: 94.81%
- Growth Percent SR [57]: 101.71%
